US5831026A, “Process for purifying factor VIII” (Pharmacia & Upjohn AB, priority 1994, dated 1998)

Assays:
factor VIII = test: Activity of factor VIII after addition of complexing agent to eluted solution from SP Sepharose FF, COATEST chromogenic assay; format: biochemical; conditions: Example 8; for Factor VIII activity (%): 0 h without additive = 100
Method: Tests without EDTA present were carried out for comparison.
(§1) A conditioned medium (containing human serum albumin) from a different harvest than the previous Examples, was clarified and buffered with NH4 Ac. […] After elution, various amounts of EDTA were added to the resulting solution. Tests without EDTA present were carried out for comparison. The procoagulant activity of factor VIII was determined after storage at ambient temperature for up to 246 hours, in accordance to the procedure described in Example 5.
as §1, with “28” for “246”
A conditioned medium (containing human serum albumin) from a different harvest than the previous Examples, was clarified and buffered with NH4 Ac. The resulting solution was loaded onto a column containing SP SEPHAROSE® FF. This cation-exchange chromatography step was performed at 10° C. […] After elution, EDTA or 1,10-Phenanthroline were added to the resulting solution.

[1] = system: metal-dependent proteases; test: Protease assay with resorufin-labeled casein in harvest solution (conditioned medium); format: biochemical, Chinese Hamster; conditions: for Mean absorbance corrected: blank subtracted
Method: The method chosen was a protease assay with casein which was resorufin-labeled. By treatment with proteases, resorufin-labeled peptides are released from the casein. The concentration of these resorufin-labeled peptides in the supernatant is a measure of the proteolytic activity present. The test sample was incubated at 37° C. for a period of time which was dependent upon the sample at issue. The absorption wave-length chosen was 574 run throughout the tests. […]
Preincubation of the conditioned medium with or without EDTA was conducted at 37° C. for 2 h. After the addition of substrate, further incubation was carried out for 17 h. The pH in the incubation mixture was 7.5.
Absorbance corrected, refers to the absorption after subtraction of the blank value.
Conditioned medium (containing human serum albumin) was clarified and imidazole subsequently added in an amount ranging from 3.6 mM up to 360 mM.
Conditioned medium (containing human serum albumin) was clarified and histidine subsequently added in an amount ranging from 0.14 mM to 13.6 mM.

[2] = 5 mM Phenanthroline, incubation 4.5 h ambient
[3] = 5 mM Phenanthroline, incubation 7.5 h ambient
[4] = 5 mM Phenanthroline, incubation 24 h ambient
[5] = 11 mM Phenanthroline, incubation 4.5 h ambient
[6] = 11 mM Phenanthroline, incubation 7.5 h ambient
[7] = 11 mM Phenanthroline, incubation 24 h ambient

c1cnc2c(c1)ccc1cccnc12 [Phenanthroline, 1,10-Phenanthroline]
Factor VIII activity (IU/ml) (factor VIII; [2]): 750 IU/ml | Factor VIII activity (%) (factor VIII; [2]): 84% | Factor VIII activity (IU/ml) (factor VIII; [3]): 964 IU/ml | Factor VIII activity (%) (factor VIII; [3]): 109% | Factor VIII activity (IU/ml) (factor VIII; [4]): 933 IU/ml | Factor VIII activity (%) (factor VIII; [4]): 105% | Factor VIII activity (IU/ml) (factor VIII; [5]): 869 IU/ml | Factor VIII activity (%) (factor VIII; [5]): 98% | Factor VIII activity (IU/ml) (factor VIII; [6]): 996 IU/ml | Factor VIII activity (%) (factor VIII; [6]): 112% | Factor VIII activity (IU/ml) (factor VIII; [7]): 916 IU/ml | Factor VIII activity (%) (factor VIII; [7]): 103%

N[C@@H](Cc1c[nH]cn1)C(=O)O [Histidine, L-histidine]
Mean absorbance ([1]; 0.14 mM histidine): 2561 | Protease activity (%) ([1]; 0.14 mM histidine): 79% | Mean absorbance corrected ([1]; 0.14 mM histidine): 1591 | Mean absorbance ([1]; 0.7 mM histidine): 2857 | Protease activity (%) ([1]; 0.7 mM histidine): 94% | Mean absorbance corrected ([1]; 0.7 mM histidine): 1887 | Mean absorbance ([1]; 1.4 mM histidine): 3153 | Protease activity (%) ([1]; 1.4 mM histidine): 108% | Mean absorbance corrected ([1]; 1.4 mM histidine): 2183 | Mean absorbance ([1]; 7 mM histidine): 1495 | Protease activity (%) ([1]; 7 mM histidine): 26% | Mean absorbance corrected ([1]; 7 mM histidine): 525 | Mean absorbance ([1]; 13.6 mM histidine): 1684 | Protease activity (%) ([1]; 13.6 mM histidine): 35% | Mean absorbance corrected ([1]; 13.6 mM histidine): 714

c1c[nH]cn1 [imidazole]
Mean absorbance ([1]; 3.6 mM imidazole): 2891 | Protease activity (%) ([1]; 3.6 mM imidazole): 95% | Mean absorbance corrected ([1]; 3.6 mM imidazole): 1921 | Mean absorbance ([1]; 18 mM imidazole): 2985 | Protease activity (%) ([1]; 18 mM imidazole): 100% | Mean absorbance corrected ([1]; 18 mM imidazole): 2015 | Mean absorbance ([1]; 36 mM imidazole): 3190 | Protease activity (%) ([1]; 36 mM imidazole): 110% | Mean absorbance corrected ([1]; 36 mM imidazole): 2220 | Mean absorbance ([1]; 180 mM imidazole): 1258 | Protease activity (%) ([1]; 180 mM imidazole): 14% | Mean absorbance corrected ([1]; 180 mM imidazole): 288 | Mean absorbance ([1]; 360 mM imidazole): 1143 | Protease activity (%) ([1]; 360 mM imidazole): 9% | Mean absorbance corrected ([1]; 360 mM imidazole): 173
